Assays:
THP1 cells = assay: Cell-based TR-FRET cGAMP assay in THP1 cells; set-up: species or system human; details: Table 6, PMA-differentiated THP1 cells, 90-bp dsDNA transfection 24 h
THP1-Dual cells = assay: Cell-based Lucia luciferase assay in THP1-Dual cells; details: Homo sapiens, Table 4, 100-bp dsDNA transfection 24 h, secreted luciferase reporting interferon-induced gene expression
h-cGAS = h-cGAS (Homo sapiens (Human), UniProt Q8N884); assay: RapidFire mass spectroscopy assay (cGAMP formation); format: biochemical
Human cGAS = Human cGAS (Homo sapiens (Human), UniProt Q8N884); assay: cGAS enzyme assay using TR-FRET; format: biochemical; details: Table 5; human cGAS 5 nmol/L, 90 bp dsDNA 100 nmol/L, TR-FRET cGAMP detection; read-out: hcGAS enzyme assay
[1] = Table 2, full-length h-cGAS 100 nM, dsDNA 25 nM, ATP and GTP 100 μM, 7 h RT
[2] = Table 3, compounds from related application PCT/US2019/016673, same RapidFire assay

Chain of Human cGAS (Q8N884 whole entry): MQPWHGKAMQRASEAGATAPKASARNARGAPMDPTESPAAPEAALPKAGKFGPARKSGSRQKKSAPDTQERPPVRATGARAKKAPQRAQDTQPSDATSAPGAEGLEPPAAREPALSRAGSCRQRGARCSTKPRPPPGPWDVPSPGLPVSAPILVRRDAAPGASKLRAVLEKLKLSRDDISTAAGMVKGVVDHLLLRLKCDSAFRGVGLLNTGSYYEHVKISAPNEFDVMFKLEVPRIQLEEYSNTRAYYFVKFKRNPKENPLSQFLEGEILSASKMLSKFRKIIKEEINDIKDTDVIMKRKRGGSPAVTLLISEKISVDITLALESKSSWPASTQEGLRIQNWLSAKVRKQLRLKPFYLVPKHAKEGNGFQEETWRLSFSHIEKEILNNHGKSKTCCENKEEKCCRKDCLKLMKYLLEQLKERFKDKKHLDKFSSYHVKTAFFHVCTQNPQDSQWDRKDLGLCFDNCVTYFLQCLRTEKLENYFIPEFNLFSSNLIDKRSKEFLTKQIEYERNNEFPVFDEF
Chain of h-cGAS (Q8N884 whole entry): as above

1-[7,8-Dichloro-10-(1-methyl-1H-pyrazol-3-yl)-3,4-dihydropyrazino[1,2-b]indazol-2(1H)-yl]-2-hydroxyethan-1-one [Example 67]
IC50 (THP1 cells): 140 nM

COc1nc2c3c([nH]c2c(Cl)c1Cl)CCN(C(=O)CO)C3 [Example 1, 1-(3,4-Dichloro-2-methoxy-5,6,7,9-tetrahydro-8H-pyrrolo[3,2-b:4,5-c′]dipyridin-8-yl)-2-hydroxyethan-1-one]
IC50 (THP1 cells; Homo sapiens, THP-1): 2500 nM | IC50 (THP1-Dual cells): 10700 nM | IC50 (h-cGAS; [1]): 61.6 nM | IC50 (Human cGAS): 190 nM

COCC(=O)N1CCc2[nH]c3cc(Cl)ncc3c2C1 [Example 2, 1-(7-Chloro-1,3,4,5-tetrahydro-2H-pyrrolo[3,2-c:4,5-c′]dipyridin-2-yl)-2-methoxyethan-1-one]
IC50 (h-cGAS; [1]): 2410 nM | IC50 (Human cGAS): > 30000 nM

COCC(=O)N1CCn2nc3c(Cl)c(Cl)ccc3c2C1 [Example 3, 1-(7,8-Dichloro-3,4-dihydropyrazino[1,2-b]indazol-2(1H)-yl)-2-methoxyethan-1-one]
IC50 (h-cGAS; [1]): 2470 nM

O=C(CO)N1CCn2nc3c(Cl)c(Cl)ccc3c2C1 [Example 4, 1-(7,8-Dichloro-3,4-dihydropyrazino[1,2-b]indazol-2(1H)-yl)-2-hydroxyethan-1-one]
IC50 (h-cGAS; [1]): 1460 nM | IC50 (Human cGAS): 21000 nM

COCC(=O)N1CCc2nn3c(Cl)c(Cl)ccc3c2C1 [Example 5, 1-(7,8-Dichloro-3,4-dihydropyrazolo[1,5-a:4,3-c′]dipyridin-2(1H)-yl)-2-methoxyethan-1-one]
IC50 (h-cGAS; [1]): 21800 nM | IC50 (Human cGAS): > 30000 nM

O=C(CO)N1CCc2nn3c(Cl)c(Cl)ccc3c2C1 [Example 6, 1-(7,8-Dichloro-3,4-dihydropyrazolo[1,5-a:4,3-c′]dipyridin-2(1H)-yl)-2-hydroxyethan-1-one]
IC50 (h-cGAS; [1]): 20800 nM

Cn1ccc(-c2nc(Cl)c(Cl)c3[nH]c4c(c23)CN(C(=O)CO)CC4)n1 [Example 25, 1-[6,7-Dichloro-9-(1-methyl-1H-pyrazol-3-yl)-1,3,4,5-tetrahydro-2H-pyrrolo[3,2-c:4,5-c′]dipyridin-2-yl]-2-hydroxyethan-1-one]
IC50 (Human cGAS): 95 nM

COCC(=O)N1CCc2[nH]c3c(Cl)c(Cl)nc(-c4ccn(C)n4)c3c2C1 [Example 30, 1-[6,7-Dichloro-9-(1-methyl-1H-pyrazol-3-yl)-1,3,4,5-tetrahydro-2H-pyrrolo[3,2-c:4,5-c′]dipyridin-2-yl]-2-methoxyethan-1-one]
IC50 (Human cGAS): 210 nM

Cn1ccc(-c2nc(Cl)c(Cl)c3c2c2c(n3C)CCN(C(=O)CO)C2)n1 [Example 34, 1-[6,7-Dichloro-5-methyl-9-(1-methyl-1H-pyrazol-3-yl)-1,3,4,5-tetrahydro-2H-pyrrolo[3,2-c:4,5-c′]dipyridin-2-yl]-2-hydroxyethan-1-one]
IC50 (Human cGAS): 150 nM

Cn1ccc(-c2cc(Cl)c(F)c3nn4c(c23)CN(C(=O)CO)CC4)n1 [Example 64, 1-[8-Chloro-7-fluoro-10-(1-methyl-1H-pyrazol-3-yl)-3,4-dihydropyrazino[1,2-b]indazol-2(1H)-yl]-2-hydroxyethan-1-one]
IC50 (Human cGAS): 180 nM

COCC(=O)N1CCn2nc3c(Cl)c(Cl)cc(-c4ccn(C)n4)c3c2C1 [Example 68, 1-[7,8-Dichloro-10-(1-methyl-1H-pyrazol-3-yl)-3,4-dihydropyrazino[1,2-b]indazol-2(1H)-yl]-2-methoxyethan-1-one]
IC50 (THP1 cells; Homo sapiens, THP-1): 330 nM | IC50 (Human cGAS): 240 nM

Cn1ccc(-c2ccc(Cl)c3nn4c(c23)CN(C(=O)CO)CC4)n1 [Example 69, 1-[7-Chloro-10-(1-methyl-1H-pyrazol-3-yl)-3,4-dihydropyrazino[1,2-b]indazol-2(1H)-yl]-2-hydroxyethan-1-one]
IC50 (Human cGAS): 280 nM

Cc1nnc(-c2cc(Cl)c(F)c3nn4c(c23)CN(C(=O)CO)CC4)o1 [Example 70, 1-[8-Chloro-7-fluoro-10-(5-methyl-1,3,4-oxadiazol-2-yl)-3,4-dihydropyrazino[1,2-b]indazol-2(1H)-yl]-2-hydroxyethan-1-one]
IC50 (Human cGAS): 7500 nM

Cc1noc(-c2cc(Cl)c(F)c3nn4c(c23)CN(C(=O)CO)CC4)n1 [Example 71, 1-[8-Chloro-7-fluoro-10-(3-methyl-1,2,4-oxadiazol-5-yl)-3,4-dihydropyrazino[1,2-b]indazol-2(1H)-yl]-2-hydroxyethan-1-one]
IC50 (Human cGAS): 1400 nM

Cn1ccc(-c2ncc(Cl)c3[nH]c4c(c23)CN(C(=O)CO)CC4)n1 [Example 72, 1-[6-Chloro-9-(1-methyl-1H-pyrazol-3-yl)-1,3,4,5-tetrahydro-2H-pyrrolo[3,2-c:4,5-c′]dipyridin-2-yl]-2-hydroxyethan-1-one]
IC50 (Human cGAS): 250 nM

COCC(=O)N1CCc2[nH]c3c(Cl)cnc(-c4ccn(C)n4)c3c2C1 [Example 73, 1-[6-Chloro-9-(1-methyl-1H-pyrazol-3-yl)-1,3,4,5-tetrahydro-2H-pyrrolo[3,2-c:4,5-c′]dipyridin-2-yl]-2-methoxyethan-1-one]
IC50 (Human cGAS): 870 nM

Cn1ccc(-c2ncc(Cl)c3c2c2c(n3C)CCN(C(=O)CO)C2)n1 [Example 74, 1-[6-Chloro-5-methyl-9-(1-methyl-1H-pyrazol-3-yl)-1,3,4,5-tetrahydro-2H-pyrrolo[3,2-c:4,5-c′]dipyridin-2-yl]-2-hydroxyethan-1-one]
IC50 (Human cGAS): 290 nM

COc1nc2c3c([nH]c2c(F)c1Cl)CCN(C(=O)CO)C3 [Example 75, 1-(3-Chloro-4-fluoro-2-methoxy-5,6,7,9-tetrahydro-8H-pyrrolo[3,2-b:4,5-c′]dipyridin-8-yl)-2-hydroxyethan-1-one]
IC50 (Human cGAS): 550 nM

COc1nc2c3c([nH]c2c(Cl)c1Cl)C(C)(C)CN(C(=O)CO)C3 [Example 76, 1-(3,4-Dichloro-2-methoxy-6,6-dimethyl-5,6,7,9-tetrahydro-8H-pyrrolo[3,2-b:4,5-c′]dipyridin-8-yl)-2-hydroxyethan-1-one]
IC50 (Human cGAS): 850 nM

CCOc1nc2c3c([nH]c2c(Cl)c1Cl)CCN(C(=O)CO)C3 [Example 77, 1-(3,4-Dichloro-2-ethoxy-5,6,7,9-tetrahydro-8H-pyrrolo[3,2-b:4,5-c′]dipyridin-8-yl)-2-hydroxyethan-1-one]
IC50 (Human cGAS): 3000 nM

CCOc1nc2c3c([nH]c2c(F)c1Cl)CCN(C(=O)CO)C3 [Example 78, 1-(3-Chloro-2-ethoxy-4-fluoro-5,6,7,9-tetrahydro-8H-pyrrolo[3,2-b:4,5-c′]dipyridin-8-yl)-2-hydroxyethan-1-one]
IC50 (Human cGAS): 3700 nM

O=C(CO)N1CCc2[nH]c3c(Cl)c(Cl)c(OCC4CC4)nc3c2C1 [Example 79, 1-[3,4-Dichloro-2-(cyclopropylmethoxy)-5,6,7,9-tetrahydro-8H-pyrrolo[3,2-b:4,5-c′]dipyridin-8-yl]-2-hydroxyethan-1-one]
IC50 (Human cGAS): 5900 nM

O=C(CO)N1CCc2[nH]c3c(F)c(Cl)c(OCC4CC4)nc3c2C1 [Example 80, 1-[3-Chloro-2-(cyclopropylmethoxy)-4-fluoro-5,6,7,9-tetrahydro-8H-pyrrolo[3,2-b:4,5-c′]dipyridin-8-yl]-2-hydroxyethan-1-one]
IC50 (Human cGAS): 5000 nM

O=C(CO)N1CCc2[nH]c3c(Cl)c(Cl)c(OC(F)F)nc3c2C1 [Example 81, 1-[3,4-Dichloro-2-(difluoromethoxy)-5,6,7,9-tetrahydro-8H-pyrrolo[3,2-b:4,5-c′]dipyridin-8-yl]-2-hydroxyethan-1-one]
IC50 (Human cGAS): 2400 nM

O=C(CO)N1CCc2[nH]c3c(F)c(Cl)c(OC(F)F)nc3c2C1 [Example 82, 1-[3-Chloro-2-(difluoromethoxy)-4-fluoro-5,6,7,9-tetrahydro-8H-pyrrolo[3,2-b:4,5-c′]dipyridin-8-yl]-2-hydroxyethan-1-one]
IC50 (Human cGAS): 15000 nM

N#Cc1ccc2c3c([nH]c2c1C#N)CCN(C(=O)CO)C3 [TDI-006932, reference compound]
IC50 (h-cGAS; [2]): > 25000 nM

O=C(CO)N1CCc2[nH]c3c(Cl)c(Cl)cc(-c4cn[nH]c4)c3c2C1 [TDI-007445, reference compound]
IC50 (h-cGAS; [2]): 27.5 nM

O=C(CO)N1CCc2[nH]c3c(Cl)c(Cl)cc(-c4ccc(NC(=O)C(F)(F)F)cc4)c3c2C1 [TDI-008458, reference compound]
IC50 (h-cGAS; [2]): 629 nM

O=C(CO)N1CCc2[nH]c3c(F)c(Cl)cc(N4CCS(=O)(=O)C4)c3c2C1 [TDI-008867, reference compound]
IC50 (THP1-Dual cells): > 10000 nM | IC50 (h-cGAS; [2]): 6930 nM

Cc1cc(-c2ncn(C)n2)c2c3c([nH]c2c1Cl)CCN(C(=O)CO)C3 [TDI-008989, reference compound]
IC50 (THP1-Dual cells): 6710 nM | IC50 (h-cGAS; [2]): 45.9 nM
